The values that follow come from patent publication US10160755B2 (Plexxikon Inc., priority 2015, dated 2018).

Substitutions are numbered along the chain they refer to.

Assay [1] addresses T1, BA/F3-FLT3-ITD + F691L cells (Homo sapiens, UniProt P36888, F691L, cells depend on it, form not given).
T1 sequence (P36888 1-993 F691L): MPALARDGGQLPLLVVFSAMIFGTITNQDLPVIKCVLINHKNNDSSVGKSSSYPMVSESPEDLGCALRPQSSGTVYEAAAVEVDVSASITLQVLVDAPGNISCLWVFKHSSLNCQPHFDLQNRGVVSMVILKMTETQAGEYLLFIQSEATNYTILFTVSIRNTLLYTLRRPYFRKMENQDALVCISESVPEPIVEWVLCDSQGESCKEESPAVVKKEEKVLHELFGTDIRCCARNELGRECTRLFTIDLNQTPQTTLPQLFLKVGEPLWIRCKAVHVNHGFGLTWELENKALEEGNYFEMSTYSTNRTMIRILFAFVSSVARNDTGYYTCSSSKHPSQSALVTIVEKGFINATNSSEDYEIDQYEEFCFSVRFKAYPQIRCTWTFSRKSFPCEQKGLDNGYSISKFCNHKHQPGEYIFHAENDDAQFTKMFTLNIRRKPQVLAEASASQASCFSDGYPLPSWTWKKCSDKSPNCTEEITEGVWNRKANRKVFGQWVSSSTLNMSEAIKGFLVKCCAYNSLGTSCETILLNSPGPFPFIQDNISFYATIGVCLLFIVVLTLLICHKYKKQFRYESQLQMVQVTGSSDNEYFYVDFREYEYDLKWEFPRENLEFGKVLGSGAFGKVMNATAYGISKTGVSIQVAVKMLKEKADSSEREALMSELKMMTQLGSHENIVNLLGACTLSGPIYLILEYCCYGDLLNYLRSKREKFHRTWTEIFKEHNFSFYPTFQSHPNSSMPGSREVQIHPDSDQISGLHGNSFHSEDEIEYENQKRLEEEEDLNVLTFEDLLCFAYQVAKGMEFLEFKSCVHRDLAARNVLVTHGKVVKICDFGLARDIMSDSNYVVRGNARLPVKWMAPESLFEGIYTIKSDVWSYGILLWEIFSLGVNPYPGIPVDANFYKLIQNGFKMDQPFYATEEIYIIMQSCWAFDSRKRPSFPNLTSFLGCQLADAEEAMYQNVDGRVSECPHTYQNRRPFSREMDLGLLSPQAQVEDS
In words: BA/F3-FLT3-ITD + F691L cell proliferation assay (CellTiter-Glo). The assay is classed as cell-based, murine. The conditions noted are these: BaF3 FLT3 ITD/F691L cells; read-out: Cell Activity (IC50 μM) BaF3_FLT3_ITD/F691L. The source says: The FLT3 inhibitors may also be assessed using leukemia cell lines that express endogenous FLT3-ITD or cells that are engineered to express wild-type or mutant FLT3. The cells expressing endogenous FLT3 are dependent upon FLT3 catalytic activity for growth. For the engineered cells, murine BA/F3 cells were transfected with full-length FLT3 (either wild-type, or containing the ITD, D835Y, or F691L mutations, as noted). The parental BA/F3 cells are dependent upon Interleukin-3 (IL-3) for survival, and introduction of the FLT3 constructs renders these cells dependent upon FLT3 kinase activity when cultured in the absence of IL-3. Engineered BA/F3 cell growth assays can be performed in either the absence or presence of IL-3, to assess the compound inhibition of FLT3 or to detect the presence of off-target activity, respectively. Inhibitors of FLT3 kinase activity reduce or eliminate the FLT3 oncogenic signaling, resulting in reduced cell proliferation. This inhibition is measured as a function of compound concentration to assess IC50 values.
Cells were seeded at 1×10^4 cells per well of a 96 well cell culture plate in 50 μl of cell culture medium. Compounds were dissolved in DMSO, typically at a concentration of 5 mM and were serially diluted 1:3 for a total of eight points and added to the cells to final concentrations of 10, 3.3, 1.1, 0.37, 0.12, 0.041, 0.014 and 0.0046 μM in 100 μl cell culture medium (final concentration 0.2% DMSO). […] The cells were incubated at 37° C., 5% CO2 for three days. CellTiter-Glo Buffer (Promega Cell Viability Assay catalog #G7573) and substrate were equilibrated to room temperature, and enzyme/substrate Recombinant Firefly Luciferase/Beetle Luciferin was reconstituted. The cell plates were equilibrated to room temperature for 30 minutes, then lysed by addition of an equivalent volume of the Celltiter-Glo Reagent. The plate was mixed for 10 minutes on a plate shaker to lyse the cells. The plates were read on a Tecan M1000 using Luminescence protocol modified to read 0.1 s per well. The luminescence reading assesses the ATP content, which correlates directly with cell number such that the reading as a function of compound concentration was used to determine the IC50 value.

The target in the next assay is T2, FLT3-D835Y (Homo sapiens, UniProt P36888, D835Y).
T2 construct: purchased Invitrogen PV3967
T2 sequence (P36888 27-993 D835Y): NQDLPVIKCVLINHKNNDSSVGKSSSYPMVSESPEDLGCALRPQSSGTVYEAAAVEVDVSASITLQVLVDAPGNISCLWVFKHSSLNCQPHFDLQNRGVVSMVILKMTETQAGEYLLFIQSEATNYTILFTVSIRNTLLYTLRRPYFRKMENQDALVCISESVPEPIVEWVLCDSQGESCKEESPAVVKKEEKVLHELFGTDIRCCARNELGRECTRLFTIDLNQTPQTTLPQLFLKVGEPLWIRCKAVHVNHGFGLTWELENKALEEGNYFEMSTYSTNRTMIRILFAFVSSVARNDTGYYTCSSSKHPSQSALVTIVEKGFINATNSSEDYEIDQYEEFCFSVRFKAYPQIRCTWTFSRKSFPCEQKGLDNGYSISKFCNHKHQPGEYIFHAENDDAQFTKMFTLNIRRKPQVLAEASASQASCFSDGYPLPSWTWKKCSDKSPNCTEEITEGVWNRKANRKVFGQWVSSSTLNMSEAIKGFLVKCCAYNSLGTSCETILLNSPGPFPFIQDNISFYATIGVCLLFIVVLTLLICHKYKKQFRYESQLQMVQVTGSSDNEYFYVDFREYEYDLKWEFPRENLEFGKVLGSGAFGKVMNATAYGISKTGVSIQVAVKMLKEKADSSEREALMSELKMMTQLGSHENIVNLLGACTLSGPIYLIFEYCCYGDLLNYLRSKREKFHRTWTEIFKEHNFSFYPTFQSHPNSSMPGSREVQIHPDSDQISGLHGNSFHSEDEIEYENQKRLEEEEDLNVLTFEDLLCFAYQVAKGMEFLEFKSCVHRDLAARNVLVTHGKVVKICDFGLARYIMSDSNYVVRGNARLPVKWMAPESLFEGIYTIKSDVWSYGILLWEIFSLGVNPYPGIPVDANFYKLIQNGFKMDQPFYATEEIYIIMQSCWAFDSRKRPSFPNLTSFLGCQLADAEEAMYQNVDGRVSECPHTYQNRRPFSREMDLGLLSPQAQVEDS
In words: FLT3-D835Y biochemical kinase assay (AlphaScreen). In a few lines:
(§1)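 AlphaScreen read-out of tyrosine phosphorylation of a 30 nM biotinylated poly(Glu4-Tyr) substrate, captured on streptavidin donor and PY20 acceptor beads at room temperature. ATP for IC50 work was 100 μM with FLT3-ITD and 10 μM with FLT3-D835Y; reduced 580 nm proximity signal reflects kinase inhibition.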

The target in another assay is T3, FLT3-ITD (Homo sapiens, UniProt P36888).
T3 construct: FLT3-ITD; Invitrogen #PV6190
T3 sequence (P36888 1-993): T1 sequence (P36888 1-993 F691L) with L691F
As to the kind of experiment: FLT3-ITD biochemical kinase assay (AlphaScreen). In a few lines: as §1
In general terms: Bead proximity is the source of the signal in Alpha formats.

For orientation: IC50 means the concentration needed to halve the response being measured. A higher IC50 goes with a need for much substance. For `c1cc(N2CCOCC2)ccc1-c1cnc2[nH]cc(-c3ccc4ncn(C5CCCNC5)c4c3)c2c1` (stereo not drawn) [P-300, 4-[4-[3-[3-(3-piperidyl)benzimidazol-5-yl]-1H-pyrrolo[2,3-b]pyridin-5-yl]phenyl]morpholine], the GI50 in assay [1] lay in the range of 0.0001 to 1 µM. The concentration for half-maximal inhibition (IC50) on FLT3-D835Y fell in the range of 0.0001 to 1 µM.

On to `Fc1ccc(-n2cnc3ccc(-c4c[nH]c5ncc(-c6cccc(OC(F)(F)F)c6)cc45)cc32)cc1Cl` [P-211, 1-(3-chloro-4-fluoro-phenyl)-6-[5-[3-(trifluoromethoxy)phenyl]-1H-pyrrolo[2,3-b]pyridin-3-yl]benzimidazole], for which the half-inhibitory concentration (IC50) against FLT3-ITD and on FLT3-D835Y was 0.0001 to 1 µM in each case.

As to `N#Cc1cccc(S(=O)(=O)Nc2cnc3[nH]cc(-c4ccc5ncn(C6CCCNC6)c5c4)c3c2)c1` (stereo not drawn) [P-234, 3-cyano-N-[3-[3-(3-piperidyl)benzimidazol-5-yl]-1H-pyrrolo[2,3-b]pyridin-5-yl]benzenesulfonamide], the IC50 against FLT3-ITD and against FLT3-D835Y was 0.0001 to 1 µM each time.

Consider `COc1cc(-c2cnc3[nH]cc(-c4ccc5ncn(-c6ccc(F)cc6)c5c4)c3n2)ccn1` [P-206, 7-[3-(4-fluorophenyl)benzimidazol-5-yl]-2-(2-methoxy-4-pyridyl)-5H-pyrrolo[2,3-b]pyrazine], for which the 50% inhibitory concentration (IC50) on FLT3-ITD and against FLT3-D835Y was 0.0001 to 1 µM each time.

In the case of `COc1cc(-c2cnc3[nH]cc(-c4ccc5ncn(C(C)(C)C)c5c4)c3n2)cc(OC)n1` [P-194, 7-(3-tert-butylbenzimidazol-5-yl)-2-(2,6-dimethoxy-4-pyridyl)-5H-pyrrolo[2,3-b]pyrazine], the half-maximal inhibitory concentration (IC50) on FLT3-ITD and against FLT3-D835Y was 0.0001 to 1 µM in each case.

Regarding `COc1cnc2[nH]cc(-c3ccc4c(c3)ncn4C)c2c1` [P-102, 5-methoxy-3-(1-methylbenzimidazol-5-yl)-1H-pyrrolo[2,3-b]pyridine], the concentration for half-maximal inhibition (IC50) lay in the range of 10 to 200 µM on FLT3-ITD and 1 to 10 µM at FLT3-D835Y.

As for `COc1cnc2[nH]cc(-c3cnc4ncn(Cc5ccccc5)c4c3)c2c1` [P-143, 1-benzyl-6-(5-methoxy-1H-pyrrolo[2,3-b]pyridin-3-yl)imidazo[4,5-b]pyridine], the half-maximal inhibitory concentration (IC50) at FLT3-ITD and against FLT3-D835Y was 0.0001 to 1 µM in each case.

`CC(C)(C)n1cnc2ccc(-c3c[nH]c4ncc(-c5cnc(C(F)(F)F)nc5)nc34)cc21` [P-343, 7-(3-tert-butylbenzimidazol-5-yl)-2-[2-(trifluoromethyl)pyrimidin-5-yl]-5H-pyrrolo[2,3-b]pyrazine]: the IC50 on FLT3-ITD and against FLT3-D835Y was 0.0001 to 1 µM throughout.

`COc1cc(-c2cnc3[nH]cc(-c4ccc5ncn(C6CCCNC6)c5c4)c3c2)cc(OC)n1` (stereo not drawn) [P-197, 5-(2,6-dimethoxy-4-pyridyl)-3-[3-(3-piperidyl)benzimidazol-5-yl]-1H-pyrrolo[2,3-b]pyridine]: the IC50 against FLT3-ITD and against FLT3-D835Y was 0.0001 to 1 µM each time.

In the case of `COc1cc(-c2cnc3[nH]cc(-c4ccc5c(c4)N(C(C)C)CCO5)c3n2)ccn1` [P-187, 4-isopropyl-6-[2-(2-methoxy-4-pyridyl)-5H-pyrrolo[2,3-b]pyrazin-7-yl]-2,3-dihydro-1,4-benzoxazine], the concentration for half-maximal inhibition (IC50) against FLT3-ITD and at FLT3-D835Y was 0.0001 to 1 µM throughout.

Turning to `COc1cc(-c2cnc3[nH]cc(-c4ccc5c(c4)N(CC(F)(F)F)CCO5)c3n2)ccn1` [P-188, 6-(2-(2-methoxypyridin-4-yl)-5H-pyrrolo[2,3-b]pyrazin-7-yl)-4-(2,2,2-trifluoroethyl)-3,4-dihydro-2H-benzo[b][1,4]oxazine], the concentration for half-maximal inhibition (IC50) against FLT3-ITD and on FLT3-D835Y was 0.0001 to 1 µM each time.

On to `COc1cc(-c2cnc3[nH]cc(-c4ccc5ncsc5c4)c3n2)ccc1Cl` [P-161, 6-[2-(4-chloro-3-methoxy-phenyl)-5H-pyrrolo[2,3-b]pyrazin-7-yl]-1,3-benzothiazole], for which the half-inhibitory concentration (IC50) against FLT3-ITD was 1 to 10 µM; against FLT3-D835Y it was 0.0001 to 1 µM.
